According to the NIST ThermoML archive (doi:10.1016/j.fluid.2011.06.012):

Key:
[1] = Molar enthalpy of transition or fusion; settings: DSC

CCCC[N+]1(C)CCCC1.N#C[S-] [1-butyl-1-methylpyrrolidinium thiocyanate]
298.15 K, 101.33 kPa, Liquid
Settings	mass density [kg/m3]	viscosity [mPa·s]
Cone and plate viscometry	–	109.46
Vibrating tube method	1024.77	–

Settings	Normal melting temperature [°C]	Triple point temperature [K]
Crystal 1, DTA	22.2	–
Crystal 2, DTA	–	245.3

[1]
Settings	Molar enthalpy of transition or fusion [kcal/mol]
Crystal 1	0.491
Crystal 2	2.07
